Experimental data from ChEMBL document CHEMBL1201862, “PubChem BioAssay data set” (2004).
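Values below derive from 48-hour exposures of cells grown in 96-well plates, with endpoints linearly interpolated between the two concentrations bracketing the appropriate inhibition level. GI50: concentration for 50% inhibition of growth.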 Calls of active or inactive are those of the source. No stated cut-off is given here; in the data, active = GI50 up to about 1.1 µM and inactive = higher.

Columns and labels:
Assay in all cases: inhibition of tumour cell growth, NCI panel, 48 h
MDA-MB-231 = system: MDA-MB-231
M14 = system: M14
TK-10 = system: TK-10
HCC 2998 = system: HCC 2998
UACC-62 = system: UACC-62
A549 = system: A549
SF-539 = system: SF-539
SK-MEL-2 = system: SK-MEL-2
NCI-H23 = system: NCI-H23
IGROV-1 = system: IGROV-1
NCI-H460 = system: NCI-H460
HCT-116 = system: HCT-116
OVCAR-5 = system: OVCAR-5
A498 = system: A498
LOX IMVI = system: LOX IMVI
SK-MEL-28 = system: SK-MEL-28
SW-620 = system: SW-620
NCI/ADR-RES = system: NCI/ADR-RES
OVCAR-3 = system: OVCAR-3
UACC-257 = system: UACC-257

| SMILES | GI50 (MDA-MB-231) | GI50 (M14) | GI50 (TK-10) | GI50 (HCC 2998) | GI50 (UACC-62) | GI50 (A549) | GI50 (SF-539) | GI50 (SK-MEL-2) | GI50 (NCI-H23) | GI50 (IGROV-1) | GI50 (NCI-H460) | GI50 (HCT-116) | GI50 (OVCAR-5) | GI50 (A498) | GI50 (LOX IMVI) | GI50 (SK-MEL-28) | GI50 (SW-620) | GI50 (NCI/ADR-RES) | GI50 (OVCAR-3) | GI50 (UACC-257) |
| --- | --- | --- | --- | --- | --- | --- | --- | --- | --- | --- | --- | --- | --- | --- | --- | --- | --- | --- | --- | --- |
| O=C(/C=C/c1ccc(O)c(O)c1)OCCCOC(=O)/C=C/c1ccc(O)c(O)c1 | 62.1 µM (inactive) | 19.2 µM (inactive) | 29.3 µM (inactive) | 38.9 µM (inactive) | 16.6 µM (inactive) | 31.3 µM (inactive) | 41.9 µM (inactive) | 41.8 µM (inactive) | 20.9 µM (inactive) | 13.3 µM (inactive) | 21.8 µM (inactive) | 18.2 µM (inactive) | 27.4 µM (inactive) | 52.5 µM (inactive) | 12.4 µM (inactive) | 36.6 µM (inactive) | 11.4 µM (inactive) | 28.4 µM (inactive) | 10.8 µM (inactive) | 26.4 µM (inactive) |
| NC1CCN(c2nc3ccccc3c3c2CCCC3)CC1 | 3.43 µM (inactive) | 1.99 µM (inactive) | 10.7 µM (inactive) | 1.73 µM (inactive) | 1.95 µM (inactive) | 9.44 µM (inactive) | 3.33 µM (inactive) | 5.12 µM (inactive) | 14.1 µM (inactive) | 6.41 µM (inactive) | 3.5 µM (inactive) | 4.01 µM (inactive) | 6.32 µM (inactive) | 10.3 µM (inactive) | 3.69 µM (inactive) | 2.73 µM (inactive) | 2.75 µM (inactive) | 12.2 µM (inactive) | 11.9 µM (inactive) | 2.1 µM (inactive) |
| CC(C)(O)C1CC[C@]2(C)[C@H]3CC[C@@H]4[C@@]5(C)CCCC(C)(C)[C@@H]5CC[C@@]4(C)[C@]3(C)CC[C@@H]12 (stereo not given in full) | > 100 µM (inactive) | > 100 µM (inactive) | > 100 µM (inactive) | > 100 µM (inactive) | > 100 µM (inactive) | > 100 µM (inactive) | > 100 µM (inactive) | > 100 µM (inactive) | > 100 µM (inactive) | > 100 µM (inactive) | > 100 µM (inactive) | > 100 µM (inactive) | > 100 µM (inactive) | > 100 µM (inactive) | > 100 µM (inactive) | > 100 µM (inactive) | > 100 µM (inactive) | > 100 µM (inactive) | > 100 µM (inactive) | > 100 µM (inactive) |
| CCC1(O)C(=O)OCc2c1cc1n(c2=O)Cc2cc3cc4c(cc3nc2-1)OCO4 (stereo not given) | 0.346 µM (active) | < 0.01 µM (active) | 0.31 µM (active) | 0.0233 µM (active) | < 0.01 µM (active) | < 0.01 µM (active) | 0.0316 µM (active) | 0.127 µM (active) | < 0.01 µM (active) | 0.0276 µM (active) | < 0.01 µM (active) | < 0.01 µM (active) | 0.0327 µM (active) | < 0.0103 µM (active) | < 0.01 µM (active) | 0.112 µM (active) | < 0.0115 µM (active) | < 0.01 µM (active) | 0.0466 µM (active) | 0.0242 µM (active) |
| Cc1nc2c(n1-c1ccc(Br)cc1)C(=O)c1ccccc1C2=O | 0.406 µM (active) | 17.7 µM (inactive) | 34.4 µM (inactive) | 14 µM (inactive) | 2.82 µM (inactive) | 6.93 µM (inactive) | 7.66 µM (inactive) | 66.4 µM (inactive) | 34 µM (inactive) | 21.2 µM (inactive) | 1.44 µM (inactive) | 1.63 µM (inactive) | > 100 µM (inactive) | > 49.8 µM (inactive) | 2.62 µM (inactive) | 12.9 µM (inactive) | 7.74 µM (inactive) | 5.78 µM (inactive) | 12 µM (inactive) | 19.5 µM (inactive) |
| CC(=O)N1c2ccccc2Sc2cc(C(O)(C(F)(F)F)C(F)(F)F)ccc21 | > 10 µM (inactive) | > 10 µM (inactive) | > 10 µM (inactive) | > 10 µM (inactive) | > 10 µM (inactive) | > 10 µM (inactive) | > 10 µM (inactive) | > 10 µM (inactive) | > 10 µM (inactive) | > 10 µM (inactive) | > 10 µM (inactive) | > 10 µM (inactive) | > 10 µM (inactive) | > 10 µM (inactive) | > 10 µM (inactive) | > 10 µM (inactive) | > 10 µM (inactive) | > 10 µM (inactive) | > 10 µM (inactive) | > 10 µM (inactive) |
| Cc1ccc(O)c(C2=CC3=NNC(=O)C3C(c3cccc(Br)c3)C2)c1 (stereo not given) | 20 µM (inactive) | 36.9 µM (inactive) | 18.6 µM (inactive) | 14.7 µM (inactive) | 19.6 µM (inactive) | 23 µM (inactive) | 29.4 µM (inactive) | 27.4 µM (inactive) | 23.7 µM (inactive) | 23.1 µM (inactive) | 22.4 µM (inactive) | 21 µM (inactive) | 21.8 µM (inactive) | 42.9 µM (inactive) | 14 µM (inactive) | 20.6 µM (inactive) | 27.7 µM (inactive) | 34.6 µM (inactive) | 22.3 µM (inactive) | 45.2 µM (inactive) |
| Cc1cc(O)c(C(C)C)cc1C1(c2cc(C(C)C)c(O)cc2C)OC(=O)c2ccccc21 | 1.91 µM (inactive) | 1.82 µM (inactive) | 3.33 µM (inactive) | 1.73 µM (inactive) | 1.46 µM (inactive) | 3.05 µM (inactive) | 1.79 µM (inactive) | 1.82 µM (inactive) | 2.12 µM (inactive) | 2.81 µM (inactive) | 1.92 µM (inactive) | 1.67 µM (inactive) | 2.38 µM (inactive) | 2.43 µM (inactive) | 1.78 µM (inactive) | 1.6 µM (inactive) | 1.76 µM (inactive) | 2.9 µM (inactive) | 2.06 µM (inactive) | 1.85 µM (inactive) |
| NC(=O)NC(=O)c1cccc(NC(=O)CF)c1 | > 100 µM (inactive) | 41.4 µM (inactive) | > 100 µM (inactive) | > 100 µM (inactive) | > 100 µM (inactive) | > 100 µM (inactive) | > 100 µM (inactive) | > 100 µM (inactive) | > 100 µM (inactive) | > 100 µM (inactive) | > 100 µM (inactive) | > 100 µM (inactive) | > 100 µM (inactive) | > 100 µM (inactive) | > 100 µM (inactive) | > 100 µM (inactive) | > 100 µM (inactive) | > 100 µM (inactive) | > 100 µM (inactive) | > 100 µM (inactive) |
| O=[N+]([O-])/C=C/c1cc(Cl)c(/C=C/[N+](=O)[O-])cc1Cl | 1.86 µM (inactive) | 1.87 µM (inactive) | 2.12 µM (inactive) | 1.53 µM (inactive) | 1.91 µM (inactive) | 4.63 µM (inactive) | 1.86 µM (inactive) | 3.25 µM (inactive) | 2.61 µM (inactive) | 3.29 µM (inactive) | 19.4 µM (inactive) | 1.12 µM (active) | 1.52 µM (inactive) | 5.89 µM (inactive) | 1.53 µM (inactive) | 1.68 µM (inactive) | 1.03 µM (active) | 2.79 µM (inactive) | 1.97 µM (inactive) | 1.89 µM (inactive) |
| Clc1ccc2c(NCCCCCCNc3ccnc4cc(Cl)ccc34)ccnc2c1 | 2.22 µM (inactive) | 1.88 µM (inactive) | 6.78 µM (inactive) | 1.67 µM (inactive) | 3.86 µM (inactive) | 4.69 µM (inactive) | 1.87 µM (inactive) | 5.97 µM (inactive) | 12.3 µM (inactive) | 4.8 µM (inactive) | 2.25 µM (inactive) | 1.8 µM (inactive) | 7.05 µM (inactive) | 11.2 µM (inactive) | 1.74 µM (inactive) | 4.62 µM (inactive) | 1.63 µM (inactive) | 4.56 µM (inactive) | 1.84 µM (inactive) | 7.57 µM (inactive) |
| CCOC(=O)c1c(O)nc(O)c(CC)c1C | > 100 µM (inactive) | > 100 µM (inactive) | > 100 µM (inactive) | > 100 µM (inactive) | > 100 µM (inactive) | > 100 µM (inactive) | 67 µM (inactive) | > 100 µM (inactive) | > 100 µM (inactive) | > 100 µM (inactive) | > 100 µM (inactive) | > 100 µM (inactive) | > 100 µM (inactive) | > 100 µM (inactive) | > 100 µM (inactive) | > 100 µM (inactive) | > 100 µM (inactive) | > 100 µM (inactive) | > 100 µM (inactive) | > 100 µM (inactive) |
